Experimental data published in patent US10532084B2, “Chondrocyte extracellular matrix-derived peptide” (EYEBIO KOREA, priority 2016, dated 2020).
Entries after “also recorded” stand apart in the source; their conditions may differ.

Experiments:
[1] = system: human vascular endothelial cells (HUVEC); assay: Tubing assay (VEGF-induced tube formation); type: cell-based; conditions: 50 ng/ml recombinant human VEGF, 4 hours
Protocol: The antiangiogenic effect of hydroxy proline-GQDGLAGPK was confirmed by tubing assay using human vascular endothelial cells (HUVEC).
HUVEC cells were stained with calcein-AM and then dispensed on a Matrigel-coated 48-well plate, treated with collagen, CPI and CPII at concentrations together with 50 ng/ml of recombinant human VEGF, and after 4 hours of incubation at 37° C., tube formation was observed by fluorescence microscopy (Leica) and tube length was analyzed by Image lab software (Bio-Rad Laboratories).
Tubing assay using human vascular endothelial cells (HUVEC) was performed to confirm the anti-angiogenic effect of hydroxyl proline-GQDGLAGPK.

[2] = system: choroidal neovascularization (CNV); assay: Laser-induced choroidal neovascularization (CNV), lesion size by retina-choroid flat-mount; type: in vivo, C57BL/6 mice; conditions: mouse, laser irradiation; 2 μg intraocular injection for 5 days
Protocol: C57BL/6 mice were purchased from Orient Bio and the animal experiments was carried out in accordance with the guidelines approved by the University of Inje (No, 2013-053) and ARVO regarding animal use for eye and vision studies. 6-week-old C57BL/6 mice were treated with diode green laser (532 nm, 150 mW, 0.1 sec, […], photocoagulator) to damage the retinal optic nerve area. […] The above experiment for each experiment group was performed using both eyes of five mice each. […]
The mouse was anesthetized and injected with 25 mg/ml of FITC-dextran in […] of retro-orbital. After 30 minutes, the mouse was euthanized and the eyeball was extracted and fixed with 10% formalin and then, the cornea and lens were removed and flat mounted on the cover glass. The neovasculature stained with FITC-dextran was observed by fluorescence microscopy (Leica) and the lesion size was measured by Image J program. […]

VEGF, ICAM and MCP-1 = assay: Quantitative real-time RT-PCR of retina and choroid, laser CNV model; type: in vivo, C57BL/6 mice; conditions: mouse, 14 days after laser; 5 μg; laser-treated group increased about 55 times
Protocol: In order to confirm the inhibitory effect of hydroxy proline-GQDGLAGPK on neovascularization-related gene expression, RNA was extracted using RNeasy Mini kit (Qiagen) in mixture of retina and choroid of extracted mice eyeballs, and cDNA was synthesized by using oligo(dT) primer and reverse transcriptase. PCR products were amplified using the specific primer set (COSMOGENETECH, Korea) shown in Table 1 and SYBR Green PCR 2X PreMix (Enzynomics) and for the PCR conditions, the samples were incubated at 95° C. for 10 minutes, and 40 PCR cycles at 95° C. for 15 seconds, 60° C. for 30 seconds and 72° C. for 15 seconds, were performed. Relative quantification was calculated using 2-(DDCT) method [Livak and Schmittgen, 2001; DDCT=(CT, target-CT, actin) control group (CT, target-CT, actin) control group].
After 14 days of laser irradiation in mouse, RNA was extracted from retina and choroid to analyze the gene expression by real-time RT-PCR.

[3] = Tear amount by phenol red-impregnated cotton threads, dry eye model; type: in vivo, NOD.B10.H2b mice; conditions: 10 days of treatment after removal of dry stress; normal 0.22±0.01, DS 10D 0.03±0.01
Protocol: Tear production was measured by a method reported using phenol red-impregnated cotton threads (Zone-Quick, Oasis, Glendora, Calif.) (Villareal A L, Farley W, Pflugfelder S C. Effect of topical ophthalmic epinastine and olopatadine on tear volume in mice. Eye Contact Lens. 2006; 32 (6): 272-276.). […] The measured lachrymal fluid in the millimeter was compared with a standard curve expressed as a cotton thread which was soaked with the expected tear amount of mouse of basic solution ([…] of 0.9% salt and 5 mL of 5 N NaOH) for 20 seconds.
The degree of tear generation was measured by phenol red-impregnated cotton threads.

corneal surface = assay: Corneal surface irregularity (smoothness) score, dry eye model; type: in vivo, NOD.B10.H2b mice; conditions: day 10 after removal of dry stress; grades 0-5; normal 0.33±0.58, DS 10D 4.33±0.58
Protocol: (§1) NOD.B10.H2^b mice were purchased from Jackson Laboratory (Bar Harbor, Me., USA). Animal experiments were carried out in accordance with the guidelines approved by the University of Inje (No.; 2014-029) and ARVO regarding animal use for eye and vision research. NOD.B10.H2^b mice at 12-16 weeks old were exposed to 40-50% ambient humidity and ventilation using a fan for 18 hours a day as dry stress and subcutaneously injected with 0.5 mg/0.2 mL muscarinic receptor blocker. In addition, scopolamine hydrobromide (Sigma-Aldrich, St. Louis, Mo.) was injected alternately to the […] hips four times a day for 10 days at 9 am, […].
(§2) After 10 days of ocular dry stress, the scopolamine injection was stopped, and switched to a normal humidity and temperature environment and the dry stress was removed, 10 mg/ml Hyp-[…] and collagen were dissolved in normal saline to administer 5 μL each 5 times a day for 10 days, and normal saline and 0.1% HA were administered to the eyeball 5 times a day for 10 days. Three mice were used in each of the six experimental groups using both eyes of the mice and all experiments were repeated.
As for the curvature of the corneal surface, a reflected image of the white ring was obtained from an optical fiber ring illumination of a stereoscopic microscope (SZX7; Olympus) after anesthetizing the animal. Corneal smoothness was assessed by grading the irregularity of corneal epithelial cells reflected in the white ring of the digital image. Corneal irregularity severity score was calculated by dividing the reflection ring into quadrants and grading into 5 grades according to degree of irregularity. No irregularity is grade 0, irregularity of ¼ (quarter) is grade 1; irregularity of 2/4 (two-quarters) is grade 2; irregularity of ¾ (three-quarters) is grade 3; entire irregularity is grade 4; and […] and thus all the rings were confirmed.
The degree of corneal curvature in each experiment group was quantified to confirm the bendability of the corneal surface.

corneal epithelial cell = assay: Corneal epithelial cell detachment (H&E), dry eye model; type: in vivo, NOD.B10.H2b mice; conditions: 10 days of treatment after removal of dry stress; DS 10D 2.29±0.57
Protocol: as §1, §2

[4] = system: conjunctival goblet cells; assay: Distribution of conjunctival goblet cells (PAS staining), dry eye model; type: in vivo, NOD.B10.H2b mice; conditions: 10 days of treatment after removal of dry stress; normal 14.38±0.44, DS 10D 6.02±0.29
Protocol: as §1, §2
The distribution of conjunctival goblet cells according to eye drop in dry eye mice was observed.

| Compound | inhibition of tube formation (angiogenesis) [1] | CNV lesions [2] | VEGF gene expression in retina and choroid (VEGF, ICAM and MCP-1) | tear amount [3] [µL] | degree of curvature (irregularity score) of the corneal surface (corneal surface) [points] | corneal epithelial cell detachment (corneal epithelial cell) | conjunctival goblet cells [4] |
| --- | --- | --- | --- | --- | --- | --- | --- |
| GDRGD [CPI] | significant inhibition of angiogenesis | reduced; also recorded: decreased |  |  |  |  |  |
| Avastin: a remedy of an age-related macular degeneration; positive control [reference compound] |  |  | decreased to the level similar to that of the laser-untreated group |  |  |  |  |
| collagen [reference compound] | significant inhibition of angiogenesis | reduced; also recorded: decreased |  | 0.13 ± 0.02 | 3.67±1.16 | 0.86±0.29 /0.1 mm^2 | 11.05±0.33 /0.1 mm^2 |
| O=c1ccn([C@@H]2O[C@H](COP(=O)([O-])OP(=O)([O-])OP(=O)([O-])OP(=O)([O-])OC[C@H]3O[C@@H](n4ccc(=O)[nH]c4=O)[C@H](O)[C@@H]3O)[C@@H](O)[C@H]2O)c(=O)[nH]1.[Na+].[Na+].[Na+].[Na+] [DQS, reference compound] |  |  |  | 0.16 ± 0.02 | 3.0±1.0 | 0.095±0.17 /0.1 mm^2 | 8.86±0.29 /0.1 mm^2 |
